The values below come from ChEMBL document CHEMBL3046267, “Induction of Phytoalexin Formation in Suspension-cultured Rice Cells byN-Acetyl-chitooligosaccharides” (1993).

Activity calls are given as the source filed them. The calls are words filed in the database; no cut-off is given here.

Holding throughout (type): functional
In one test the test system is Pyricularia oryzae. Put plainly: Antifungal activity against Magnaporthe oryzae assessed as inhibition of germ tube growth at 1 to 5 ug/ml relative to control.
In test [1] the test system is Oryza sativa. As to the kind of experiment: Induction of phytoalexin formation in suspension-cultured Oryza sativa (rice) cells assessed as accumulation of intracellular momilactone B at 10 ug/ml after 48 hr by GC/GC-MS analysis.
Test [2] deals with Oryza sativa. Put plainly: Induction of phytoalexin formation in suspension-cultured Oryza sativa (rice) cells assessed as accumulation of momilactone A in culture medium at 0.7 x 10^-9 to 0.7 x 10^-6 M after 24 hr by GC/GC-MS analysis.
Test [3] has as its system Oryza sativa. As to the kind of experiment: Induction of phytoalexin formation in suspension-cultured Oryza sativa (rice) cells assessed as accumulation of momilactone A in culture medium at 0.7 x 10^-9 to 0.7 x 10^-6 M after 48 hr by GC/GC-MS analysis.
In test [4] the test system is Oryza sativa. As to the kind of experiment: Induction of phytoalexin formation in suspension-cultured Oryza sativa (rice) cells assessed as accumulation of momilactone A in culture medium at 0.7 x 10^-9 to 0.7 x 10^-6 M after 72 hr by GC/GC-MS analysis.
For test [5], the system named is Oryza sativa. Put plainly: Induction of phytoalexin formation in suspension-cultured Oryza sativa (rice) cells assessed as accumulation of intracellular momilactone A at 0.7 x 10^-9 to 0.7 x 10^-6 M after 24 hr by GC/GC-MS analysis.
Test [6] relates to Oryza sativa. Put plainly: Induction of phytoalexin formation in suspension-cultured Oryza sativa (rice) cells assessed as accumulation of intracellular momilactone A at 0.7 x 10^-9 to 0.7 x 10^-6 M after 48 hr by GC/GC-MS analysis.
Test [7] concerns Oryza sativa. As to the kind of experiment: Induction of phytoalexin formation in suspension-cultured Oryza sativa (rice) cells assessed as accumulation of intracellular momilactone A at 0.7 x 10^-9 to 0.7 x 10^-6 M after 72 hr by GC/GC-MS analysis.

In the case of `C=C[C@]1(C)CC[C@@H]2C(=C[C@H]3OC(=O)[C@@]4(C)C(=O)CC[C@@]2(C)[C@@H]34)C1` [MOMILACTONE A], in the test on Pyricularia oryzae, the “growth inhibition (GI)” value stood at 50%.

Consider `C=C[C@]1(C)CC[C@@H]2C(=C[C@H]3OC(=O)[C@]4(C)[C@H]3[C@]23CC[C@@]4(O)OC3)C1` [MOMILACTONE B], for which the “growth inhibition (GI)” value in the test on Pyricularia oryzae turned out to be 50%.

As to `CC(=O)N[C@H]1[C@H](O[C@@H]([C@H](O)[C@H](C=O)NC(C)=O)[C@H](O)CO)O[C@H](CO)[C@@H](O[C@@H]2O[C@H](CO)[C@@H](O[C@@H]3O[C@H](CO)[C@@H](O[C@@H]4O[C@H](CO)[C@@H](O[C@@H]5O[C@H](CO)[C@@H](O[C@@H]6O[C@H](CO)[C@@H](O)[C@H](O)[C@H]6NC(C)=O)[C@H](O)[C@H]5NC(C)=O)[C@H](O)[C@H]4NC(C)=O)[C@H](O)[C@H]3NC(C)=O)[C@H](O)[C@H]2NC(C)=O)[C@@H]1O` [N-ACETYLCHITOHEPTAOSE], the result in the test on Oryza sativa [1] was Active. For the same molecule, the Activity with Oryza sativa [2] is 24 µg/g; in the test with Oryza sativa [3] it was 161 µg/g; with Oryza sativa [4], 149 µg/g; in the test with Oryza sativa [5], 16 µg/g; in the test with Oryza sativa [6], 41 µg/g; in the test with Oryza sativa [7], 56 µg/g.
